Laboratory results from US10570118B2, “Isoquinolones as BTK inhibitors” (Boehringer Ingelheim International GmbH, priority 2016, dated 2020).

Assays:
[1] = target: human full length His-tagged BTK (Homo sapiens (Human), UniProt Q06187); assay: BTK Lanthscreen Eu Kinase Binding assay; details: TR-FRET tracer displacement, 2 nM BTK, 30 min pre-incubation
Method: BTK Lanthscreen® Eu Kinase Binding assay:
A Lanthscreen® Eu Kinase Binding assay (Life Technologies) was performed to quantitate the ability of test compounds to bind to BTK. The assay is based on the binding and displacement of Alexa Fluor647-labeled Kinase Tracer #236 to the ATP-binding site of human full length His-tagged BTK (Life Technologies cat # PV3587) with TR-FRET detection using a europium-labeled anti-His antibody. The assay was assembled in 384-well low volume NBS black plates (Corning) where 2 nM BTK and test compound in DMSO at varying concentrations were pre-incubated for 30 min at 28° C. in assay buffer consisting of 50 mM HEPES, pH 7.4, 10 mM MgCl2, 1 mM EGTA. 100 μM Na3VO4 and 0.01% Brij 35. Then, 2 nM of Eu-anti His antibody and 30 nM Kinase Tracer were added and incubated for […] at 28° C. Following incubation, TR-FRET signal was read on an Envision plate reader (Excitation: 340 nm; Emissions: 615 and 665 nm). The 665: 615 nm emission ratio was calculated and converted to POC compared to control and blank wells.

[2] = target: BTK (Homo sapiens (Human), UniProt Q06187); assay: Inhibition of IL-6 production in B cells co-stimulated with ODN 2006 and anti-hIgD; assay type: cell-based; details: primary CD19+ B cells, anti-human IgD + ODN 2006 stimulation, 18-24 hours; read-out: B-cell IL-6 IC50
Method: Inhibition of IL-6 Production in B Cells Co-Stimulated with ODN 2006 and Anti-hIgD
Primary CD19+ B cells (AllCells # PB010F) are thawed and plated in RPMI containing 10% HI FBS in a 384-well tissue cultured plate at 20,000 cells/well. The cells are treated with test compound (0.5% DMSO final concentration) and incubated for 1 hour at 37° C., 5% CO2. Cells are then stimulated with 5 μg/mL Goat F(ab′)2 anti-human IgD (SouthernBiotech #2032) and 2 uM ODN 2006 (InvivoGen # till-2006) and incubated for 18-24 hours at 37° C., 5% CO2. IL-6 in the supernatant is measured using Meso Scale Discovery kit # K211AKB-6.
(§1) The compounds described herein show a range of selectivity against EGFR as measured in cellular assays (BTK activity measured by IL-6 production in primary CD19^+ cells; EGFR activity measured by EGFR phosphorylation in A431 cells).

[3] = target: EGFR (Homo sapiens (Human), UniProt P00533); assay: Inhibition of EGFR autophosphorylation in A431 human epithelial cells stimulated with epithelial growth factor; assay type: cell-based; details: 16 hours compound, EGF 60 ng/mL 10 minutes, read-out: A431 p-EGFR IC50
Method: Inhibition of EGFR Autophosphorylation in A431 Human Epithelial Cells Stimulated with Epithelial Growth Factor
A431 cells (ATCC # CRL-1555 FZ) are thawed and plated in DMEM containing 10% FBS in a 384-well tissue culture treated plate at 15,000 cells/well. After incubating for 24 hours at 37° C., 5% CO2, the cells are treated with test compound (1% DMSO final concentration) and incubated for 16 hours at 37° C., 5% CO2. EGF (Millipore, 01-107) is added at a final concentration of 60 ng/mL and incubated for 10 minutes. The medium is removed, the cells are lysed, and phospho EGFR is measured (Meso Scale Diagnostics, N31CB-1).
as §1

Sequence of EGFR (P00533 25-1210): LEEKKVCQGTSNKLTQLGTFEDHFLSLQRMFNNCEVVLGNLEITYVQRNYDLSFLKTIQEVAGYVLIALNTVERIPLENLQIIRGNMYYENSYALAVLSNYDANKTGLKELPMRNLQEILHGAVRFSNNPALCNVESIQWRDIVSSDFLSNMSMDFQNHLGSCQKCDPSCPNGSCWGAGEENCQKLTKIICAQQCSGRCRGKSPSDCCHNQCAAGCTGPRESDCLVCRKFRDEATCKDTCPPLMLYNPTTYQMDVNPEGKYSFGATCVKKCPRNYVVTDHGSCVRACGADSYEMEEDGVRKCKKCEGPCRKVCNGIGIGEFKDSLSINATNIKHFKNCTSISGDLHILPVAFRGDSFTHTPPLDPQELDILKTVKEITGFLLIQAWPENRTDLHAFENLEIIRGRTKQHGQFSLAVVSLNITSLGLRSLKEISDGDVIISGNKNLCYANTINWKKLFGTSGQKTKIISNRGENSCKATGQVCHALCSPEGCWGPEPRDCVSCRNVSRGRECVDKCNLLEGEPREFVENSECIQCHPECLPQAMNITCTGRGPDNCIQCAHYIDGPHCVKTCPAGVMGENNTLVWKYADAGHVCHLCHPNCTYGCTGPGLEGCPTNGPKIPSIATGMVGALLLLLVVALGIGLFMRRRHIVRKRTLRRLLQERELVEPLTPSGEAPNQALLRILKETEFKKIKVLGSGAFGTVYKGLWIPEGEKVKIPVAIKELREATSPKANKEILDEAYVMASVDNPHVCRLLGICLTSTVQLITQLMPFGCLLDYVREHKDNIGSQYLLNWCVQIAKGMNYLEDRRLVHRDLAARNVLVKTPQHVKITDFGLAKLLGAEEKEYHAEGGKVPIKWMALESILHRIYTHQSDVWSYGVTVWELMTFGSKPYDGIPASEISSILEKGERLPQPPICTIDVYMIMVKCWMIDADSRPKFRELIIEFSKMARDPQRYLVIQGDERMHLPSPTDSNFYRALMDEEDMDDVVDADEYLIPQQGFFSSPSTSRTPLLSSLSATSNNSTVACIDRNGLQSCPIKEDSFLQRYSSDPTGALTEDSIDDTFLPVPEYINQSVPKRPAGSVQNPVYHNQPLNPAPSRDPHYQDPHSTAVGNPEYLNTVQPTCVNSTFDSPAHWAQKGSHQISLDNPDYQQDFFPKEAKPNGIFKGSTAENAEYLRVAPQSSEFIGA
Sequence of BTK (Q06187 whole entry): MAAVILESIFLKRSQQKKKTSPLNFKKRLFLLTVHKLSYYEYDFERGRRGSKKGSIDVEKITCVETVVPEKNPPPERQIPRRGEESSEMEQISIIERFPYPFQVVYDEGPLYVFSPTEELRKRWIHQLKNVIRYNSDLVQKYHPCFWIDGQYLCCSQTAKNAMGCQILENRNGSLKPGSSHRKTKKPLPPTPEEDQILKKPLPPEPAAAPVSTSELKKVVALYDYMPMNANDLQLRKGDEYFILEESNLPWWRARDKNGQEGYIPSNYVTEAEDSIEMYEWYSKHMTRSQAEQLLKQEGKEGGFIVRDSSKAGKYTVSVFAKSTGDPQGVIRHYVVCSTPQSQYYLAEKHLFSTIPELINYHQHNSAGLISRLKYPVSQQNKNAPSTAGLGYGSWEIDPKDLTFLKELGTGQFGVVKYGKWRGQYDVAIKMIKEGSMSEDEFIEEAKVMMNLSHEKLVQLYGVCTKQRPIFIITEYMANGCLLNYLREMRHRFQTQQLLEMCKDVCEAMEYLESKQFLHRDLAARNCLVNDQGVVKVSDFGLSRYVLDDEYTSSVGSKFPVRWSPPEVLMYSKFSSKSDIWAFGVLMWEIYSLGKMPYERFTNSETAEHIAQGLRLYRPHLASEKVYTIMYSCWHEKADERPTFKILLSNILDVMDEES
Sequence of human full length His-tagged BTK (Q06187 whole entry): as above

IC50 [1] | IC50 [2] | IC50 [3] | Structure (SMILES)
5.2 nM | 100 nM | > 10000 nM | C=CC(=O)N1CC(c2cc3cc(C4CC4)ccc3c(=O)n2-c2cccc(-c3cccc(C(N)=O)c3)c2CO)C1 [Example 5]
11 nM | 96 nM | > 10000 nM | CC#CC(=O)N1CC(Cc2cc3cc(C4CC4)ccc3c(=O)n2-c2cccc(-c3cc(C(N)=O)n(C)c3)c2CO)C1 [Example 8]
2.4 nM | 12 nM | > 10000 nM | C=CC(=O)N1CCC(c2cc3cc(C4CC4)ccc3c(=O)n2-c2cccc(-c3cc(C(N)=O)n(C)c3)c2CO)C1 (stereo not shown) [Example 13]
19 nM | 85 nM | > 10000 nM | C=CC(=O)N1CC(Cc2cc3cc(C4CC4)ccc3c(=O)n2-c2cccc(-c3cc(N)ncn3)c2CO)C1 [Example 14]
4.2 nM | 8.8 nM | > 10000 nM | C=CC(=O)N1CC(c2cc3cc(C4CC4)ccc3c(=O)n2-c2cccc(-c3ccnc(NC)c3)c2CO)C1 [Example 15]
59 nM | 160 nM | > 10000 nM | C=CC(=O)N(C)Cc1cc2cc(C3CC3)ccc2c(=O)n1-c1cccc(-c2cc(C(N)=O)n(C)c2)c1CO [Example 18]
8.9 nM | 37 nM | 3200 nM | C=CC(=O)N1CC(c2cc3cc(C4CC4)ccc3c(=O)n2-c2cccc(-c3ccnc(N)c3)c2Cl)C1 [Example 20]
140 nM | – | – | C=CC(=O)N(C)Cc1cc2cc(C3CC3)ccc2c(=O)n1-c1cccc(-c2cc(N)c(=O)n(C)c2)c1CO [Example 24]
230 nM | – | – | C/C=C/C(=O)N1CC(c2cc3cc(C4CC4)ccc3c(=O)n2-c2cccc(-c3cc(C(N)=O)n(C)c3)c2CO)C1 [Example 26]
310 nM | – | – | CC#CC(=O)N1CC(c2cc3cc(C4CC4)ccc3c(=O)n2-c2cccc(-c3cc(N)c(=O)n(C)c3)c2CO)C1 [Example 28]
450 nM | – | – | CC#CC(=O)N1CC(c2cc3cc(C4CC4)ccc3c(=O)n2-c2cccc(-c3ccc4[nH]ncc4c3)c2CO)C1 [Example 30]
480 nM | – | – | Cn1cc(-c2cccc(-n3c(C4CCN(C#N)C4)cc4cc(C5CC5)ccc4c3=O)c2CO)cc(N)c1=O (stereo not shown) [Example 31]
490 nM | – | – | CN(C#N)Cc1cc2cc(C3CC3)ccc2c(=O)n1-c1cccc(-c2cc(N)c(=O)n(C)c2)c1CO [Example 32]
0.42 nM | 4.6 nM | > 10000 nM | C=CC(=O)N1CC(c2cc3cc(C4CC4)cc(F)c3c(=O)n2-c2cccc(-c3cc(C(N)=O)n(C)c3)c2CO)C1 [Example 40]

Continued, compound first:

Structure (SMILES) | IC50 [1] | IC50 [2] | IC50 [3]
C=CC(=O)N1CC(c2cc3cc(C4CC4)ccc3c(=O)n2-c2cccc(-c3cc(C(N)=O)n(C)c3)c2CO)C1 (single isomer, unassigned) [Example 42] | 560 nM | – | –
C=CC(=O)N1CC(c2cc3cc(C4CC4)ccc3c(=O)n2-c2cccc(-c3cc(C(N)=O)n(C)c3)c2CO)C1 (single isomer, unassigned) [Example 43] | 0.56 nM | 3.6 nM | > 10000 nM
Cn1cc(-c2cccc(-n3c(C4CN(C#N)C4)cc4cc(C5CC5)ccc4c3=O)c2CO)cc1C(N)=O [Example 1] | 0.7 nM | 4.3 nM | 4700 nM
C=CC(=O)N1CC(Cc2cc3cc(C4CC4)ccc3c(=O)n2-c2cccc(-c3cc(C(N)=O)n(C)c3)c2CO)C1 [Example 2] | 4 nM | 36 nM | > 10000 nM
N#CN1CC(c2cc3cc(C4CC4)ccc3c(=O)n2-c2cccc(-c3ccc4[nH]ncc4c3)c2CO)C1 [Example 3] | 1.9 nM | – | –
N#CN1CC(c2cc3cc(C4CC4)ccc3c(=O)n2-c2cccc(-c3cccc(C(N)=O)c3)c2CO)C1 [Example 4] | 5 nM | – | –
C=CC(=O)N1CCC1Cc1cc2cc(C3CC3)ccc2c(=O)n1-c1cccc(-c2cc(C(N)=O)n(C)c2)c1CO (stereo not shown) [Example 6] | 3.9 nM | 16 nM | 4500 nM
C=CC(=O)N1CC(c2cc3cc(C4CC4)ccc3c(=O)n2-c2cccc(-c3cc(C(N)=O)n(C)c3)c2CO)C1 [Example 7] | 0.7 nM | 5.6 nM | > 10000 nM
Cn1cc(-c2cccc(-n3c(C4CN(C#N)C4)cc4cc(C5CC5)ccc4c3=O)c2CO)cc(N)c1=O [Example 9] | 2.6 nM | – | –
C=CC(=O)N1CC(c2cc3cc(C4CC4)ccc3c(=O)n2-c2cccc(-c3cc(N)c(=O)n(C)c3)c2CO)C1 [Example 11] | 1.9 nM | 21 nM | > 10000 nM
N#CN1CC(c2cc3cc(C4CC4)ccc3c(=O)n2-c2cccc(-c3cc(N)ncn3)c2CO)C1 [Example 12] | 3.3 nM | 28 nM | 4500 nM
C=CC(=O)N1CCC(c2cc3cc(C4CC4)ccc3c(=O)n2-c2cccc(-c3cc(N)c(=O)n(C)c3)c2CO)C1 (stereo not shown) [Example 16] | 20 nM | 92 nM | > 10000 nM
C=CC(=O)N1CC(c2cc3cc(C4CC4)ccc3c(=O)n2-c2cccc(-c3ccnc(N)c3)c2CO)C1 [Example 17] | – | 3.7 nM | > 10000 nM
CC#CC(=O)N1CC(c2cc3cc(C4CC4)ccc3c(=O)n2-c2cccc(-c3cc(C(N)=O)n(C)c3)c2CO)C1 [Example 19] | 64 nM | – | –
C=CC(=O)N1CC(c2cc3cc(C4CC4)ccc3c(=O)n2-c2cccc(-c3cc(N)ncn3)c2CO)C1 [Example 21] | 0.48 nM | 1.9 nM | > 10000 nM
C=CC(=O)N1CCC(c2cc3cc(C4CC4)ccc3c(=O)n2-c2cccc(-c3ccncc3)c2CO)C1 (stereo not shown) [Example 22] | 37 nM | – | –
C=CC(=O)N(C)Cc1cc2cc(C3CC3)ccc2c(=O)n1-c1cccc(-c2ccnc(N)c2)c1CO [Example 23] | 120 nM | – | –
C=CC(=O)N1CCC(c2cc3cc(C4CC4)ccc3c(=O)n2-c2cccc(-c3ccn4cncc4c3)c2CO)C1 (stereo not shown) [Example 25] | 160 nM | – | –
C=CC(=O)N1CC(Cc2cc3cc(C4CC4)ccc3c(=O)n2-c2cccc(-c3ccc4cncn4c3)c2CO)C1 [Example 27] | 310 nM | – | –
C/C=C/C(=O)N1CC(c2cc3cc(C4CC4)ccc3c(=O)n2-c2cccc(-c3ccnc(NC)c3)c2CO)C1 [Example 29] | 440 nM | – | –
C=CC(=O)N1CC(Cc2cc3cc(C4CC4)ccc3c(=O)n2-c2cccc(-c3ccnc(NC)c3)c2CO)C1 [Example 33] | 510 nM | – | –
CC#CC(=O)N(C)Cc1cc2cc(C3CC3)ccc2c(=O)n1-c1cccc(-c2cc(C(N)=O)n(C)c2)c1CO [Example 34] | 530 nM | – | –
CC#CC(=O)N1CC(c2cc3cc(C4CC4)ccc3c(=O)n2-c2cccc(-c3ccnc(NC)c3)c2CO)C1 [Example 35] | 530 nM | – | –
C=CC(=O)N(C)Cc1cc2cc(C3CC3)ccc2c(=O)n1-c1cccc(-c2cccc(C(N)=O)c2)c1CO [Example 36] | 580 nM | – | –
C=CC(=O)N1CCC(c2cc3cc(C4CC4)ccc3c(=O)n2-c2cccc(-c3ccnc(N)c3F)c2CO)C1 (stereo not shown) [Example 37] | 620 nM | – | –
C=CC(=O)N1CC(Cc2cc3cc(C4CC4)cc(OC)c3c(=O)n2-c2cccc(-c3cc(C(N)=O)n(C)c3)c2CO)C1 [Example 38] | 250 nM | – | –
C=CC(=O)N1CC(Cc2cc3cc(C4CC4)cc(F)c3c(=O)n2-c2cccc(-c3cc(C(N)=O)n(C)c3)c2CO)C1 [Example 41] | 0.71 nM | – | –
